Experiments:
[1] = target: T1, recombinant human 5HT6 receptor (Homo sapiens, UniProt P50406); experiment: Binding to the 5HT6 serotonin receptor ([3H]-LSD radioligand); settings: 10^−6 M compound; [3H]-LSD 2.7 nM; HEK-293 cell membranes
T1 construct: purchased Receptor Biology; host or cells: HEK-293 cell membranes
Method: Binding to the 5Ht6 Serotonin Receptor
HEK-293 cell membranes expressing the recombinant human 5HT6 receptor were supplied by Receptor Biology. […] Incubation ends by quick filtration in a Harvester Brandel Cell through fiberglass filters of the Schleicher & Schuell GF 3362 trademark, pretreated with a 0.5% polyethyleneimine solution. […] The vials are left to equilibrate for several hours prior to their counting in a 1414 Wallac Winspectral scintillation counter. […] The assays are carried out in triplicate. The inhibition constants (Ki, nM) are calculated by non-linear regression analysis using the EBDA/LIGAND program [Munson and Rodbard, Analytical Biochemistry, 1980, 107, 220].
Binding of the new compounds of general formula (Ia and Ib and Ic) to the 5-HT6 receptor was determined as previously described.

T1 sequence (P50406 whole entry): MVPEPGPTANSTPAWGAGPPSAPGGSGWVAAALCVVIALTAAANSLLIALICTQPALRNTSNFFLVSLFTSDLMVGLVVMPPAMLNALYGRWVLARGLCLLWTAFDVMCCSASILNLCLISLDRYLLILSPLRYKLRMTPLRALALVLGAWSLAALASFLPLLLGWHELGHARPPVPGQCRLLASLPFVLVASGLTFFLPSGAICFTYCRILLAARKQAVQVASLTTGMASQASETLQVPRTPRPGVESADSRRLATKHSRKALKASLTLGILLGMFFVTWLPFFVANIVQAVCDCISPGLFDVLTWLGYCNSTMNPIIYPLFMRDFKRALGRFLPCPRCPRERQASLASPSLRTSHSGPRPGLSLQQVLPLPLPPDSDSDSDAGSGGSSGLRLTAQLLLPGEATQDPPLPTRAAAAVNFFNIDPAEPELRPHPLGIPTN

| Compound | % Inhibition 10^−6 M [1] [%] | melting point [°C] | inhibition at 1 µM [1] [%] |
| --- | --- | --- | --- |
| N-[1-(2-dimethylaminoethyl)-1H-indole-4-yl]-naphtalene-2-sulfonamide [Example 2] | 104.3 | – | – |
| N-[1-(2-dimethylaminoethyl)-1H-indole-4-yl]-naphtalene-1-sulfonamide [Example 3] | 94.8 | – | – |
| CN(C)CCn1ccc2c(NS(=O)(=O)c3ccc(-c4ccccc4)cc3)cccc21 [Example 4, N-[1-(2-dimethylaminoethyl)-1H-indole-4-yl]-4phenylbenzenesulfonamide] | – | 137 to 140 | – |
| CN(C)CCn1ccc2c(NS(=O)(=O)CCc3cccc4ccccc34)cccc21 [Example 5, N-[1-(2-dimethylaminoethyl)-1H-indole-4-yl]-2-(naphthalene-1-yl)-ethanesulfonamide] | – | 47 to 54 | – |
| CN(C)CCn1ccc2c(NS(=O)(=O)c3cc(Cl)cc(Cl)c3)cccc21 [Example 7, N-[1-(2-dimethylaminoethyl)-1H-indole-4-yl]-3,5-dichlorobenzenesulfonamide] | – | 113 to 118 | 72.3 |
| Cc1c(S(=O)(=O)Nc2cccc3c2ccn3CCN(C)C)sc2ccc(Cl)cc12 [Example 1, N-[1-(2-dimethylaminoethyl)-1H-indole-4-yl]-5-chloro-3-methyl-benzo[b]thiophene-2-sulfonamide] | – | 78 to 80 | – |

From patent US8097643B2, “Indol-4 sulfonamide derivatives, their preparation and their use 5-ht-6 as modulators” (Laboratorios del Dr. Esteve S. A., priority 2003, dated 2012)
